Measured values taken from patent US12064468B2, “Compositions and methods relating to a C-terminal peptide of troponin i with activity as a myofilament CA2+ desensitizer” (Wayne State University, priority 2019, dated 2024).
Ends that are not written are not given here.

Experiments:
mAb TnI-1 [1] = assay: Competitive ELISA: peptide versus immobilized bovine cardiac TnI for mAb TnI-1; format: binding, mouse; conditions: physiologic solution
Procedure: To compare the folding and conformation of chemically synthesized HcTnI-C27 and HcTnI-C27-H peptides with that of the biologically synthesized counterparts, competitive ELISA affinity titrations against mAb TnI-1 were performed. 96-well microtiter plates were coated with purified bovine cardiac TnI in Buffer A and incubated at 4° C. overnight. Monoclonal antibody (mAb) TnI-1 was added, at a predetermined concentration that produces sub-maximal binding for the immobilized bovine cardiac TnI, to serial dilutions of biologically or chemically synthesized HcTnI-C27 and HcTnI-C27-H peptides. The effects of the peptides on competing with intact cardiac TnI for mAb TnI-1 were measured via HRP-anti-mouse IgG secondary antibody using standard ELISA procedure as described above.

mAb TnI-1 [2] = assay: Western blot with mAb TnI-1 (epitope in the C-terminal end of TnI); format: binding, mouse; conditions: after denaturing SDS-PAGE and blotting
Procedure: SDS-PAGE was performed to monitor the expression and identify the C27 peptide in intact TnI and fusion protein constructs. Briefly, 14% Laemmli SDS-PAGE with an acrylamide:bisacrylamide ratio of 29:1 was used to monitor protein expression. Protein samples were prepared by dissolving the proteins in an SDS-PAGE gel sample buffer containing 2% SDS and 3% β-mercaptoethanol. The samples were run on 0.75 mm gels at 20 mA per gel using a Bio-Rad mini-gel system. Resolved gels were stained with Coomassie Blue R-250 and de-stained using 10% acetic acid. The results were documented by imaging using a high resolution scanner.
Tris-Tricine small pore SDS-gels were utilized to […]. Briefly, 15% SDS-PAGE with acrylamide:bisacrylamide ratio of 20:1 was used to monitor the recovery of peptides. Samples were prepared as above. The gel was run using different anode and cathode buffers as described in H. Schagger et al., 166(2) (1987) 368-379; J.-P. Jin, Journal of Biological Chemistry 270(12) (1995) 6908-6916. The running conditions and documentation of results were carried out as above.
The protein bands resolved on SDS-PAGE gels were electrically transferred to nitrocellulose (NC) membranes or polyvinylidene difluoride (PVDF) membranes using a Bio-Rad semidry electrotransfer apparatus at 5 mA per cm^2. The membranes were then blocked with 1% bovine serum albumin (BSA) in Tris-buffered saline (TBS) at room temperature for 30 minutes, and incubated with mAb TnI-1 against an epitope in the C-terminal end of TnI or mAb 3C11 against the Tx3 metal affinity purification tag at 4° C. overnight. The TnI-1 mAb was raised using standard hybridoma technology in which the immunization of mouse used purified intact chicken fast TnI. […] The 3C11 mAb was generated using standard hybridoma technology in which the immunization used a Tx3 metal binding tag fusion protein. […] Washed with 0.05% Triton X-100 and 0.1% SDS in TBS, the membranes were further incubated with alkaline phosphatase-conjugated goat anti-mouse IgG secondary antibody, washed again, and developed in BCIP-NTB substrate solution. The results were documented by imaging using a high resolution scanner.

[3] = target: T1, bovine cardiac α-tropomyosin (Bos taurus, UniProt Q5KR49); assay: Competitive ELISA: peptide versus intact bovine cardiac TnI for tropomyosin binding; conditions: serial dilutions of peptide in solution
T1 construct: Purified bovine cardiac α-tropomyosin was coated on 96-well plate; from tissue; host or cells: bovine cardiac muscle (inferred from 'purified bovine cardiac')
Procedure: Competitive tropomyosin binding experiments were performed using a derivative protocol of the microtiter plate ELISA as described in B. J. Biesiadecki et al., Journal of Biomedicine and Biotechnology, (2011) 1-8. Purified bovine cardiac α-tropomyosin was coated on 96-well plate at 5 μg/mL in Buffer A at 4° C. overnight. Washed and blocked as above, bovine cardiac TnI was added, at a predetermined concentration that produces sub-maximal binding for the immobilized tropomyo sin, to serial dilutions of HcTnI-C27 or HcTnI-C27-H peptides for incubation at room temperature for 2 hours. The competition between the cardiac TnI C-terminal peptides and intact cardiac TnI for tropomyosin binding was measured via mAb 4H6 that recognizes an epitope in intact TnI but not in the C-terminal end peptide, see S. Akhter et al., FEBS Open Bio 5 (2015) 64-75, and HRP-anti-mouse IgG secondary antibody using standard ELISA procedure as described above.

[4] = test system: skinned mouse EDL muscle fibers; assay: Force-pCa contractility of skinned mouse EDL muscle fibers; format: biochemical; conditions: 20 μM peptide, sarcomere length 2.7 μm
Excerpt: Extensor digitorum longus (EDL) muscles were obtained from adult C57B/L6 mice immediately after euthanasia to prepare chemically permeabilized muscle preparations as described in J. Ochala et al., The FASEB Journal 25(6) (2011) 1903-1913; and S. M. Roche et al., Journal of Visualized Experiments 100 (2015). Briefly, whole EDL muscles were excised from mice and longitudinally dissected along fibers in a calcium free relaxing buffer. The muscle strips dissected were washed with the relaxing buffer and stored in a 35 mm dish at −20° C. in 50% glycerol relaxing-skinning solution to remove cellular membranes and the endogenous calcium handling system for use in the measurements of calcium sensitivity and force-pCa relationship.
For contractility studies, the storage dish was placed on a thermal-controlled metal stage at 0° C. under a dissection scope. Cryosectioned cardiac muscle strips selected with cardiomyocytes clearly organized along the long axis and EDL muscle fibers were mounted between two aluminum T-clips and transferred to an 8-chamber thermo-controlled stage (802D, Aurora Scientific) on an inverted microscope in relaxation buffer at 6-8° C. Seen through a 20× lens, the muscle preparation was connected to a force transducer (403A, Aurora Scientific) and a length controller (322-C, Aurora Scientific). The buffer was then switched to a skinning solution (relaxation buffer containing 1% Triton X-100) for 20 min to further permeabilize the muscle strips. After a wash with relaxation buffer, the permeabilized muscle strip was placed in pCa 9.0 buffer made by mixing the relaxing buffer (pCa 10.0) with an activation buffer (BES 40 mM, EGTA 10 mM, MgCl2 6.64 mM, ATP 6.23 mM, DTT, 1 mM, CaCl2 10 mM, creatine phosphate 33 mM, creatine kinase 200 U/mL, K-propionate 2.09 mM, pH 7.0, plus protease inhibitor cocktail, pCa 4.0) and the sarcomere length was measured through a digital camera attached to the microscope and adjusted to resting sarcomere length of 2.7 μm for EDL muscle fibers or 2.0 μm and 2.3 μm for cardiac muscle fibers. […]

[5] = test system: skinned mouse ventricular papillary muscle; assay: Force-pCa contractility of skinned mouse ventricular papillary muscle; format: biochemical; conditions: 20 μM peptide
Procedure: (§1) Permeabilized rat and mouse left ventricular papillary muscle preparations were prepared using a skinned cryosection method. Papillary muscles were dissected with a portion of ventricular free wall in one end and valve tendon in the other end. The isolated papillary muscle was pinned down on a cork at the two ends using 30 gauge needles. A small drop of optimal cutting temperature (O.C.T.) compound was used to fill the space between the muscle tissue and the surface of the cork before flash freezing by quickly submerging in liquid nitrogen. The frozen papillary muscle was sectioned longitudinally at a thickness of 35 μm using a cryostat and collected on a glass slide. Four stacked razor blades were used to cut the muscle sections longitudinally into 140-150 μm wide strips. The muscle strips were washed in a relaxing buffer (BES 40 mM, EGTA 10 mM, MgCl2 6.86 mM, ATP 5.96 mM, DTT 1 mM, creatine phosphate 33 mM, creatine kinase 200 U/mL, K-propionate 3.28 mM, pH 7.0, plus protease inhibitor cocktail) and then gently transferred into myofibril relaxation buffer containing 50% glycerol in a 35 mm culture dish and stored at −20° C. for later use in force-pCa studies.
For contractility studies, the storage dish was placed on a thermal-controlled metal stage at 0° C. under a dissection scope. […] After a wash with relaxation buffer, the permeabilized muscle strip was placed in pCa 9.0 buffer made by mixing the relaxing buffer (pCa 10.0) with an activation buffer (BES 40 mM, EGTA 10 mM, MgCl2 6.64 mM, ATP 6.23 mM, DTT, 1 mM, CaCl2 10 mM, creatine phosphate 33 mM, creatine kinase 200 U/mL, K-propionate 2.09 mM, pH 7.0, plus protease inhibitor cocktail, pCa 4.0) and the sarcomere length was measured through a digital camera attached to the microscope and adjusted to resting sarcomere length of 2.7 μm for EDL muscle fibers or 2.0 μm and 2.3 μm for cardiac muscle fibers. […]

[6] = test system: skinned rat ventricular papillary muscle; assay: Force-pCa contractility of skinned rat ventricular papillary muscle sections; format: biochemical; conditions: 20 μM peptide
Procedure: as §1
For contractility studies, the storage dish was placed on a thermal-controlled metal stage at 0° C. under a dissection scope. Cryosectioned cardiac muscle strips selected with cardiomyocytes clearly organized along the long axis and EDL muscle fibers were mounted between two aluminum T-clips and transferred to an 8-chamber thermo-controlled stage (802D, Aurora Scientific) on an inverted microscope in relaxation buffer at 6-8° C. Seen through a 20× lens, the muscle preparation was connected to a force transducer (403A, Aurora Scientific) and a length controller (322-C, Aurora Scientific). The buffer was then switched to a skinning solution (relaxation buffer containing 1% Triton X-100) for 20 min to further permeabilize the muscle strips. After a wash with relaxation buffer, the permeabilized muscle strip was placed in pCa 9.0 buffer made by mixing the relaxing buffer (pCa 10.0) with an activation buffer (BES 40 mM, EGTA 10 mM, MgCl2 6.64 mM, ATP 6.23 mM, DTT, 1 mM, CaCl2 10 mM, creatine phosphate 33 mM, creatine kinase 200 U/mL, K-propionate 2.09 mM, pH 7.0, plus protease inhibitor cocktail, pCa 4.0) and the sarcomere length was measured through a digital camera attached to the microscope and adjusted to resting sarcomere length of 2.7 μm for EDL muscle fibers or 2.0 μm and 2.3 μm for cardiac muscle fibers. Calcium activated force was examined at pCa 6.5, 6.3, 6.0, 5.8, 5.5, 5.0, and 4.5 at 15° C. using calcium-EGTA buffer sets made using a formula described in S. M. Roche et al., Journal of Visualized Experiments 100 (2015). HcTnI-C27 peptide was then added at 20 μM and the force-pCa measurements were repeated. The force-pCa curves were plotted and fitted using Hill exponential equation for data analysis, see S. M. Roche et al., Journal of Visualized Experiments 100 (2015).

mAb TnI-1 [7] = assay: ELISA titration of mAb TnI-1 against coated fusion proteins / cardiac TnI, non-denaturing; format: binding, mouse; conditions: non-denaturing conditions, protein coated on microtiter plate
Procedure: The ELISA procedure used in the present study for epitope structure and protein binding studies was performed as described in B. J. Biesiadecki et al., Journal of Biomedicine and Biotechnology, (2011) 1-8. Briefly, 96-well microtiter plates were coated with SUMO-HcTnI-C27 fusion protein, SUMO-HcTnI-C27-H fusion protein, purified bovine cardiac TnI, or R192H mutant mouse cardiac TnI (2 μg/mL in Buffer A containing 0.1 M KC1, 3 mM MgCl2, 10 mM PIPES, pH 7.0, 100 microliters/well) at 4° C. overnight. The plates were washed with Buffer T (0.05% Tween-20 in Buffer A) for 10 minutes and tapped dry. The wells were blocked using Buffer B (1% BSA in Buffer T) at room temperature for one hour. After washing again with Buffer T, serial dilutions of primary mAb against the coated protein were added in triplicates in Buffer D (dilution buffer, 0.1% BSA in Buffer T) and the plate was incubated at room temperature for two hours. After Buffer T washes, horseradish peroxidase (HRP)-conjugated anti-mouse immunoglobulin secondary antibody was added to incubate at room temperature for one hour. After final washes, H2O2-2,2′-azinobis-(3-ethylbenzthiazolinesulfonic acid) substrate solution was added for colorimetric development at room temperature and the plate was read using an automated microplate reader at 420 nm at 5 minute intervals for 30 minutes.
The ELISA experiments were done in triplicate wells. […]

[8] = sarcomere lengths 2.0 μm and 2.3 μm

Row | Substance | competition with intact cardiac TnI for binding of mAb TnI-1, synthetic versus biologically made peptide (mAb TnI-1 [1]) | reactivity to mAb TnI-1 in Western blot (mAb TnI-1 [2]) | competition with intact bovine cardiac TnI for binding to immobilized tropomyosin [3] | cooperativity (n) of force-pCa curve [4] | maximum force production [4] | myofilament Ca2+ sensitivity [4] | cooperativity ([5]; sarcomere length 2.0 μm, activated state) | Ca2+ sensitivity (force-pCa curves) [5, 8] | maximum force production [5, 8] | pCa50 and cooperativity ([6]; sarcomere length 2.0 μm) | Ca2+-sensitization effect of increasing sarcomere length ([6]; sarcomere length 2.0 μm to 2.3 μm) | cooperativity ([6]; sarcomere length 2.3 μm) | pCa50 ([6]; sarcomere length 2.3 μm) | maximum force production [6, 8] | binding of mAb TnI-1 in ELISA titration (mAb TnI-1 [7])
1 | ENREVGDWHKNIDALSGMEGRKKKFES (C-terminal portion of human cardiac troponin I with H substitution for R at position 9) [HcTnI-C27-H, R192H mutant of the C-terminal 27 amino acid peptide of human cardiac TnI, reference compound] | drastically lost the binding affinity for mAb TnI-1 | remains non-reactive to mAb TnI-1 | diminished | – | – | – | – | – | – | – | – | – | – | – | –
2 | ENREVGDWRKNIDALSGMEGRKKKFES (C-terminal portion of human cardiac troponin I) [HcTnI-C27, the C-terminal 27 amino acid peptide of human cardiac TnI] | nearly identical effectiveness | remains reactive to mAb TnI-1 | dose-dependent competition | significantly decreased cooperativity | not affected | myofilament Ca^2+-desensitization effect predominantly in the activated state | significantly lowered cooperativity | right-shifts of the force-pCa curves | not significantly affected | small effect on lowering pCa50 and cooperativity | diminished the Ca^2+-sensitization effect of increasing sarcomere length from 2.0 μm to 2.3 μm | trend of decreasing cooperativity | statistically significant right-shift of pCa50 | not affected | –
3 | Tx3-SUMO-HcTnI-C27-H: HcTnI-C27-H (R192H mutant) expressed as Tx3-SUMO fusion protein (ENREVGDWHKNIDALSGMEGRKKKFES; also: expressed as Tx3-SUMO fusion protein) [reference compound] | – | lost binding to mAb TnI-1 | – | – | – | – | – | – | – | – | – | – | – | – | clearly detectable but significantly decreased binding to mAb TnI-1
4 | Tx3-SUMO-HcTnI-C27: HcTnI-C27 expressed as fusion protein with Tx3 metal-binding tag and SUMO substrate domain (ENREVGDWRKNIDALSGMEGRKKKFES; also: expressed as Tx3-SUMO fusion protein) | – | reactive to mAbTnI-1 | – | – | – | – | – | – | – | – | – | – | – | – | saturable binding of mAb TnI-1
